Experimental findings from US20260174677A1, “METHODS OF TREATING INSULIN RESISTANCE AND ASSOCIATED DISORDERS” (The University of Melboune, priority 2022, published 2026) are described below.

What all share (format): in vivo, mouse
Assay [1] is described as follows: I.C.V. fluorosamine in obese mice: metabolic assessment. The settings on record: I.C.V. daily for 10 days. As for the experimental part: Metabolic measurements were undertaken in the Melbourne Mouse Metabolic Phenotyping Platform (The University of Melbourne, Australia). Glucose tolerance tests were performed on 6 h fasted conscious mice respectively by injecting D-glucose (2 mg/g of lean body mass and 1 mg/g lean mass for db/db and HFHS+STZ mice) into the peritoneal cavity and measuring glucose in tail blood immediately before and at 15, 30, 45, 60, 90 and 120 min after injection using an Accu-Check glucometer (Roche, Germany). The areas under glucose excursion curves were determined and expressed as mmol/1×min. Fasted (12 h fast) plasma insulin or glucose levels were determined using a Rat/Mouse Insulin ELISA (EZRMI-13K, Merck Millipore, CA) or an Accu-Check glucometer respectively. The HOMA-IR was calculated using the equation [(glucose×insulin)/405]. Adiposity was measured using TD-NMR minispec (Bruker Optics Inc., Billerica, MA).
Mice were acclimated for 24 h and then monitored for 48 h in an environmentally controlled Promethion Metabolic Screening System (Sable Systems International, NV) fitted with indirect open circuit calorimetry, food consumption and activity monitors to measure activity, caloric intake and energy expenditure. Respiratory quotients were calculated as the ratio of CO2 production over O2 consumption respiratory exchange ratio and energy expenditure was calculated using the Weir equation (Kcal h-1=60×(0.003941×VO2+0.001106×VCO2). To account for difference in body mass/composition energy expenditure was analysed and adjusted using ANCOVA using scripts available at the National Mouse Metabolic Phenotyping Centers (MMPC, Nashville, TN, USA) Energy Expenditure Analysis Page (https://www.mmpc.org/shared/regression.aspx).
(§1) Under isoflurane anaesthetic 12-week HFHS fed C57BL/6J or AgRP-Cas9 mice were implanted stereotaxically with guide cannulas into the right lateral ventricle (0.2 mm posterior, 1.0 mm lateral from bregma). Guide cannula was positioned 1.3 mm above the injection site (1 mm ventral to the surface of the skull). AgRP-Cas9 mice were treated with either AAV-gScrambled or AAV-gIR and underwent guide cannula placement 7 days post AAV administration. Mice were administered I.C.V. vehicle (ddH2O), fluorosamine (100 μg/animal/day or 250 μgl/animal/day) in a volume of 2 μl/animal and all compounds were delivered approximately 1 h before lights off […].

Assay [2] deals with CSPG-ECM. The assay is described as follows: I.C.V. fluorosamine in obese mice: WFA immunostaining of CSPG-ECM in brain areas. As for the experimental part: For detection of aggrecan, GFP, HABP, parvalbumin, mCherry, versican, tenascin-C, HAPLN1, neurocan, phosphacan, brevican, WFA and WFA-FITC sections were incubated at room temperature for 1 h in blocking buffer (0.3% Triton X-100, 5% normal goat serum, Gibco, ThermoFisher, MA, 0.02% sodium azide) and then overnight at 4° C. in 1% blocking buffer containing either rabbit anti-aggrecan (1:1000, AB1031, Millipore, MA), chicken anti-GFP (1:2000; ab13970, Abcam, Cambridge, UK), Biotinylated HABP (1:100, 385911, Burlington, MA), sheep anti-parvalbumin (1:1000), in house), rabbit anti-dsRed (1:2000, 600-401-379, Rockland, PA), rabbit anti-versican (1:1000, AB1033, Millipore, MA), tenascin-C (1:500, M1-B4, Developmental Studies Hybridoma Bank, Iowa), HAPLN1 (1:500, 9/30/8-A-4, Developmental Studies Hybridoma Bank, Iowa), neurocan (1:300, 1F6-S, Developmental Studies Hybridoma Bank, Iowa), phophacan (1:300, 3F8, Developmental Studies Hybridoma Bank, Iowa), brevican (1:500, 610895, BD Transduction Laboratories), biotinylated WFA (1:2000, L1516; Sigma-Aldrich, MO), WFA-FITC (1:2000, FL-1351-2, Vector Laboratories, CA), rabbit anti PGP9.5 (1:1000, 14730-1-AP, Proteintech, IL), guinea pig anti AgRP (1:500, AS506, Antibodies Australia, Melbourne, AUS). […]
All image quantification was performed in Image J (NIH) software (NIH, MA). […] To quantify area and intensity of the CSPG-ECM within each brain region (ARC, VMH or RSG cortex) images were thresholded and binarized to create a region of interest (ROI) mask of only the CSPG-ECM. For each brain area, CSPG-ECM ROI area (μm^2) and intensity (sum of all pixel intensities within the ROI) was calculated. […]

Assay [3] concerns insulin induced p-AKT signalling in the ARC. Kind of assay: I.C.V. fluorosamine in obese mice: insulin-induced p-AKT in the ARC. The settings on record: following 10 days of treatment. As to the method: as §1

Molecules are shown by their SMILES. Entries after “also recorded” stand apart in the source; their conditions may differ.

For `CC(=O)NC1C(OC(C)=O)OC(COC(C)=O)[C@@H](F)C1OC(C)=O` (stereo partly drawn) [fluorosamine, per-O-acetylated-4-F-N-acetylglucosamine], in assay [1], the adiposity result is listed as “reduced adiposity”, the body weight result was “promoted weight loss”, the energy expenditure entry is on record as “enhanced energy expenditure independently of ambulatory activity” and the food intake entry is recorded as “supressed food intake through enhanced satiety”. Moreover, the glucose tolerance entry in assay [1] is recorded as “improved glucose tolerance”. In assay [2] (I.C.V. daily for 10 days), the “CSPG-ECM in other brain areas such as the RSG cortex” value is “did not reduce CSPG-ECM” and the “neurofibrosis (CSPG-ECM, WFA immunostaining) within the ARC” value is recorded as “significantly attenuated neurofibrosis within the ARC; also recorded: preferentially attenuates CSPG-ECM in the ARC”. In assay [2] (I.C.V., highest dose), the “CSPG-ECM expression in the habenula” value was “only partially attenuated expression”. Besides, the “insulin induced p-AKT signalling in the ARC” value in assay [3] is “enhanced insulin induced p-AKT signalling in the ARC”.
